Where two headings read alike, the source gives them in different places.

The text below walks through data of patent publication US20060134064A1, “Combined treatment with interferon-alpha and an epidermal growth factor receptor kinase inhibitor” (priority 2004, published 2006).

The test system of one experiment is colorectal cancer. The note with it: cited from earlier work.
The subject of the next experiment is HER1/EGFR. In words: Cell-surface HER1/EGFR expression by immunofluorescent flow cytometry after IFNα treatment. It is filed as cell-based, human. The note with it: IFNα 100 IU/mL. The method, then: The cell-surface HER1/EGFR levels at 72 h and 96 h of culture, with or without IFN-α (50 or 100 IU/ml), were measured by immunofluorescent flow cytometry. Cells were seeded in 60×15 mm dishes (FALCON™, BD) and treated with 100 IU/mL of IFN-α. The treated and untreated cells were harvested at different time intervals using 0.02% EDTA in PBS, then washed twice with ice-cold PBS and counted. The mouse monoclonal antibody against the extracellular domain of human HER1/EGFR (Catlog No: MO886, DAKO) diluted 1 in 100 in PBS was added to the cells (1×10^6 cells in 100 μL volume), while an irrelevant IgG 2b was used as the isotype-matched antibody control. After 60 min on ice, cells were washed and incubated with 100 μL of fluorescein-isothiocyanate (FITC)-conjugated goat-anti-mouse IgG (Catlog No: 81-6511, ZYMED), 1 in 200 dilution in PBS, on ice for 30 min in the dark. The cells were then washed again twice and resuspended in 1% formaldehyde in PBS. Cell surface immunofluorescence was analysed on a FACSCalibur (BD) using CELLQuest software equipped with a 5 W argon ion laser tuned to 488 nm at 200 mW. Levels of protein expression were estimated as the geometric mean of fluorescence intensity (MFI) of anti-HER1/EGFR minus that of the isotype-matched antibody control. Ten thousand singlet and viable cells of the individual treated and control samples were measured. Duplicate experiments with triplicate samples were performed for all cells.
Cell-surface HER1/EGFR expression by untreated cell lines: All cell lines were measured first to obtain an untreated level of HER1/EGFR. Cells were harvested after 72 h of culture and measured by flow cytometry. The HER1/EGFR value was calculated as the geometric mean fluorescence intensity of anti-HER1/EGFR detection minus that of isotype control. SW620 cells were HER1/EGFR-negative. Other cell lines including DLD-1, HCT116, HT29, KM12SM, LIM2099, LIM2408, LOVO and SW480 all positively expressed HER1/EGFR.
The relationship between HER1/EGFR expression and IFNα treatment was assessed in all cell lines. Cells were all cultured with or without 100 IU/mL of IFNα (which mimics serum levels in humans given subcutaneous interferon (Robinson S. P., et al. (1990) Breast Cancer Res. Treat.; 5:95-101) for 72 and 96 h. The cell-surface HER1/EGFR expression at 72 h of culture from untreated and treated groups of individual cell lines detected using anti-HER1/EGFR antibody minus isotype control is shown in FIG. 1. IFNα treatment was associated with significant up-regulation of cell-surface HER1/EGFR expression in 7 of 8 HER1/EGFR-positive cell lines, including DLD-1 (HER1/EGFR level (mean plus/minus standard deviation of the mean) treated versus that untreated: 17.89+0.60/10.86+0.51, paired t test, p=0.005; 95% confidence interval of the difference: 4.88−9.16), HCT116 (22.75+0.79/7.80+0.22, p<0.001; 13.52−16.36), HT29 (11.12+0.20/8.58+0.24, p=0.004; 1.82−3.27), LIM2099 (22.19+0.56/12.82+0.52, p=0.001; 7.87−10.86), LIM2408 (22.93+0.53/10.77+0.21, p=0.001; 10.35−13.97), LOVO (14.77+0.34/8.12+0.25, p=0.003; 5.2−8.1), and SW480 (27.09+0.76/14.10+0.33, p=0.002; 10.66−15.32) cells. In contrast, HER1/EGFR expression levels were not increased in KM12SM cells after IFNα treatment. […] Consistently, at 96 h of culture the cell-surface HER1/EGFR expression from untreated and treated groups of individual cell lines followed the same trend. Since up-regulation of HER1/EGFR expression was sustained between 72 and 96 h, we thus chose 72 h for IFNα pretreatment and 96 h for combination treatment introduced below.
A general note: In flow cytometry, cells or beads pass a laser one at a time.

The next experiment has as its system BL-17/2. In words: Crystal violet nuclear staining assay, bladder cancer cell line BL-17/2. The format is cell-based. The note with it: 2.5 μg/ml erlotinib, 96 h. An excerpt:
(§1) It is known that 40-60% of bladder cancers over-express EGFR which provides an opportunity for targeted therapy.

For experiment [1], the system named is bladder cancer cell lines. To be noted: 10 μg/ml erlotinib; 8 of 9 cell lines.
Description: Three different experimental schedules were performed: Single drug exposure over a range of concentrations of erlotinib, combination with IFN-α, and pre-treatment with IFN-α followed by erlotinib combined with IFN-α.
Cells were grown in 24-well plates and the antiproliferative effect was measured by crystal violet nuclear staining assay.
Another experiment relates to MGHU3. The experiment in a line: Crystal violet nuclear staining assay, bladder cancer cell line MGHU3. The format is cell-based. The note with it: 2.5 μg/ml erlotinib, 96 h.
Description: as §1

In another experiment the test system is BL-17/0/X1. The experiment in a line: Crystal violet nuclear staining assay, bladder cancer cell line BL-17/0/X1. The format is cell-based. The note with it: 2.5 μg/ml erlotinib, 96 h.
Description: as §1

In a further experiment the test system is HT1376. The experiment in a line: Crystal violet nuclear staining assay, bladder cancer cell line HT1376. It is filed as cell-based. To be noted: 2.5 μg/ml erlotinib, 96 h.
Description: as §1

`O=C1[O][Pt]2([NH][C@@H]3CCCC[C@H]3[NH]2)[O]C1=O` [oxaliplatin]: the response rates in the experiment with colorectal cancer (combined with 5-FU and leucovorin, first-line treatment for colorectal cancer) was 25-40%.
With IFNα, the “HER1/EGFR level (geometric mean fluorescence intensity minus isotype control), treated” value was found to be 17.89 ± 0.60 in the experiment on HER1/EGFR (DLD-1 cells, 72 h, mean plus/minus SD); 22.75 ± 0.79 in the experiment on HER1/EGFR (HCT116 cells, 72 h, mean plus/minus SD); 11.12 ± 0.20 in the experiment with HER1/EGFR (HT29 cells, 72 h, mean plus/minus SD); 22.19 ± 0.56 with HER1/EGFR (LIM2099 cells, 72 h, mean plus/minus SD); 22.93 ± 0.53 with HER1/EGFR (LIM2408 cells, 72 h, mean plus/minus SD); 14.77 ± 0.34 with HER1/EGFR (LOVO cells, mean plus/minus SD (FIG. 1: LOVO measured at 24 h)). For the same molecule, the “HER1/EGFR level (geometric mean fluorescence intensity minus isotype control), treated” value in the experiment with HER1/EGFR (SW480 cells, 72 h, mean plus/minus SD) came to 27.09 ± 0.76. Besides, in the experiment on HER1/EGFR (HER1/EGFR-negative SW620 cells, 72 h), the “Induction of HER1/EGFR expression by IFNα treatment” value is listed as “unable to induce HER1/EGFR expression”. In addition, the “HER1/EGFR expression levels after IFNα treatment” value with HER1/EGFR (KM12SM cells, 72 h) is listed as “not increased”.
`C#Cc1cccc(Nc2ncnc3cc(OCCOC)c(OCCOC)cc23)c1` [erlotinib, [6,7-bis(2-methoxyethoxy)-4-quinazolin-4-yl]-(3-ethynylphenyl)amine]: the “growth rate of control cells” value in the experiment with BL-17/2, in the experiment with MGHU3, in the experiment on BL-17/0/X1 and in the experiment with HT1376 was less than 60% throughout. Moreover, the “growth rate of control” value in experiment [1] is less than 60%.
For `O=c1[nH]cc(F)c(=O)[nH]1` [5-fluorouracil], the response rates result in the experiment on colorectal cancer (single-agent treatment, advanced colorectal cancer) is listed as “about 10%”.
